Source: patent publication US20260055126A1, “SMALL MOLECULE COMPOUNDS WITH PHOSPHORYLATED ARYL STRUCTURES AND USE THEREOF” (HANGZHOU PHECDAMED CO., LTD., priority 2022, published 2026)
Where “and” joins values, the source holds several entries; their conditions need not be identical. Equal entries are not always repeated. Where two headings read alike, the source gives them in different places.

Columns and labels:
[1] = system: recombinant TEAD1 protein (194-411, Uniprot ID: P28347); test: Thermal shift assay (protein melting point curve), TEAD1; format: binding; parameters: key to the marks not given beside the values; settings: 10 μM TEAD protein, 50 μM test compound
Protocol: (§1) The ability of the compounds to increase the melting point of purified recombinant TEAD1/2/3/4 proteins is tested using a thermal shift assay. The strength of the compound's binding to the protein and the selectivity of the compound's binding to the four TEAD subtypes are evaluated by calculating the melting point shift ΔTm−° C. […] Based on the Δ Tm value, the ability of the compound to bind to the TEAD protein is divided into four levels: ++++, +++, ++, +.
(§2) Test method of protein melting point curve: 10 μL of the protein melting point curve experimental system (10 μM TEAD protein, 50 μM test compound, SYPRO® orange (55692, sigma)) is prepared in a 384-well fluorescence quantitative PCR plate according to the following system, and reacted at 4° C. in the dark for 20 minutes. On-machine reaction: ABI QuantStudio Dx fluorescence quantitative PCR instrument; program: from 25° C. to 80° C., increasing the temperature at a rate of 0.05° C./s, and reading the fluorescence channel signal of the corresponding wavelength of SYPRO® orange every second.

[2] = target: recombinant TEAD2 protein (218-447, Uniprot ID: Q15562) (Homo sapiens (Human), UniProt Q15562); test: Thermal shift assay (protein melting point curve), TEAD2; format: binding; settings: 10 μM TEAD protein, 50 μM test compound
recombinant TEAD2 protein (218-447, Uniprot ID: Q15562), sequence (Q15562 218-447): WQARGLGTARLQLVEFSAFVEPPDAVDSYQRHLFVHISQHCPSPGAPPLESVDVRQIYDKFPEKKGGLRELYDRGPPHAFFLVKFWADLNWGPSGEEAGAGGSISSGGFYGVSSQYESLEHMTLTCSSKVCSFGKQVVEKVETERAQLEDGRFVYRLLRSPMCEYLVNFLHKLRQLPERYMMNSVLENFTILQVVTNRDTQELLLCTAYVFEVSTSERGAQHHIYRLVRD
Protocol: as §1, §2

[3] = target: recombinant TEAD3 protein (218-435, Uniprot ID: Q99594) (Homo sapiens (Human), UniProt Q99594); test: Thermal shift assay (protein melting point curve), TEAD3; format: binding; settings: 10 μM TEAD protein, 50 μM test compound
recombinant TEAD3 protein (218-435, Uniprot ID: Q99594), sequence (Q99594 218-435): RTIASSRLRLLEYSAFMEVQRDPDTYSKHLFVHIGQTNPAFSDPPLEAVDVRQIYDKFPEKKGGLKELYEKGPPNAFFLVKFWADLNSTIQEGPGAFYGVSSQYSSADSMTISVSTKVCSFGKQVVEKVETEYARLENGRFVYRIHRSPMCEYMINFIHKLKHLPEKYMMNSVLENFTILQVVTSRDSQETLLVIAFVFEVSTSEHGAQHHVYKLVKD
Protocol: as §1, §2

[4] = target: recombinant TEAD4 protein (217-434, Uniprot ID: Q15561) (Homo sapiens (Human), UniProt Q15561); test: Thermal shift assay (protein melting point curve), TEAD4; format: binding; settings: 10 μM TEAD protein, 50 μM test compound
recombinant TEAD4 protein (217-434, Uniprot ID: Q15561), sequence (Q15561 217-434): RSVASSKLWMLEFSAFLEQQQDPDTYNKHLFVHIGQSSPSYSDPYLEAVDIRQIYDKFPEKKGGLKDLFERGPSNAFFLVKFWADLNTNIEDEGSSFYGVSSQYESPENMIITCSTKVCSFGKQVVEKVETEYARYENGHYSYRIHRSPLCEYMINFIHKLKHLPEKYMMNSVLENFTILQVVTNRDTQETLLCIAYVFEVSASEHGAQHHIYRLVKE
Protocol: as §1, §2

TEAD family proteins = test: Thermal shift assay, summary over all TEAD subtypes; format: binding; settings: summary of Table 1
Protocol: as §1, §2

[5] = target: recombinant TEAD1 protein central pocket (Homo sapiens (Human), UniProt P28347); test: Competitive thiol binding assay (CPM assay), TEAD1; settings: 150 nM recombinant TEAD protein, 150 nM CPM
recombinant TEAD1 protein central pocket, sequence (P28347 whole entry): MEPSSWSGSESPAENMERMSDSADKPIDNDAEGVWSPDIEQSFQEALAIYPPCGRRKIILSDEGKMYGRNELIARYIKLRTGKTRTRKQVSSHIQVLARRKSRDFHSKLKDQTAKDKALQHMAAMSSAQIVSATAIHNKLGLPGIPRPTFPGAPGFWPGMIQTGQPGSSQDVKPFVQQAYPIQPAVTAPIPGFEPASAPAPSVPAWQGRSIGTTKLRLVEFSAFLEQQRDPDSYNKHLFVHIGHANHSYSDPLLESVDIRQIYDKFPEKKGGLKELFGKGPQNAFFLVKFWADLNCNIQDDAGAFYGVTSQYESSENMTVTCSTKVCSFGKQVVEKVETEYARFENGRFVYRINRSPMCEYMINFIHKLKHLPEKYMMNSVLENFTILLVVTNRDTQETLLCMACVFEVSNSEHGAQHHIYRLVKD
Protocol: (§3) Diluting the tested compound in gradient to 5 uL with buffer (25 mM HEPES, 150 mM NaCl, pH6.5), then adding 5 μL of the newly prepared 0.45 uM recombinant TEAD protein solution, and incubating at room temperature for 10 minutes. […] After shaking the plate at room temperature for 1 hour, measuring the fluorescence intensity (Ex/Em: 380/470 nm).

[6] = target: recombinant TEAD4 protein central pocket (Homo sapiens (Human), UniProt Q15561); test: Competitive thiol binding assay (CPM assay), TEAD4; settings: 150 nM recombinant TEAD protein, 150 nM CPM
recombinant TEAD4 protein central pocket, sequence (Q15561 whole entry): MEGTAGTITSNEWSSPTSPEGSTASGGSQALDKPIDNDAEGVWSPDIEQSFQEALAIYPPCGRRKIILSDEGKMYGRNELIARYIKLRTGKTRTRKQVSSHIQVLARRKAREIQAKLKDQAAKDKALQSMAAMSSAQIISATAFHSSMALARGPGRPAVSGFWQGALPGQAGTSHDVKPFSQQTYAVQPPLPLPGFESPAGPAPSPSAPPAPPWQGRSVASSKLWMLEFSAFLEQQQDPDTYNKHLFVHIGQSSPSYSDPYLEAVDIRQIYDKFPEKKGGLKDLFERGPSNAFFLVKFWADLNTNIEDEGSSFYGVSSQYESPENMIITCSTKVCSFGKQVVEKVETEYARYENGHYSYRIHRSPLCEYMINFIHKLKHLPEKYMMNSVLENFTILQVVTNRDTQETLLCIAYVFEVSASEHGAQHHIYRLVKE
Protocol: as §3

[7] = In vitro liver microsome stability, mouse; format: in vitro ADME; settings: for metabolic stability: mouse liver microsome environment; for mouse half-life: mouse liver microsomes
Protocol: (§4) Testosterone is selected as the positive reference compound. The specific method is as follows:
(§5) Preparing 0.1MK3 PO4 (pH 7.4) buffer and 3×NADPH stock solution (6 mM, 5 mg/mL), and preheating in a 37° C. water bath; preparing spiking solution of tested compound and control compound: adding 5 μL compound stock solution (10 mM) to 95 μL acetonitrile; preparing 1.5 μM spiking solution in microsomes (0.75 mg/mL): add 1.5 μL spiking solution and 18.75 μL liver microsome solution (20 mg/mL) to 479.75 μL K3PO4 buffer; taking 30 μL spiking solution in microsomes and adding it to the multiwell plate, and incubating at 37° C. for 5 min; adding 15 μL of NADPH stock solution to each well, starting to react, and timing; adding 150 μL of acetonitrile solution containing IS at 0 min, 5 min, 15 min, 30 min, 45 min and 60 min respectively to terminate the reaction; after 10 min of oscillation, centrifuging the reaction at 6000 rpm for 15 min; taking 80 μL of supernatant from each well for LC/MS detection and calculating Ti/2.
(§6) Liver microsomes of mice, rats, dogs, and human used in the experiment are purchased from Xenotech.

[8] = In vitro liver microsome stability, human; format: in vitro ADME; settings: for metabolic stability: human liver microsome environment; for human half-life: human liver microsomes
Protocol: as §4, §5, §6

[9] = Mouse plasma pharmacokinetic test; format: in vivo, CD-1 mice
Source text: In this example, different compounds are used to perform a mouse pharmacokinetic experiment, and the specific steps are as follows: Animal information: CD-1 mice, male, about 20 g, purchase from Beijing Weitonglihua Experimental Animal Technology Co., Ltd.
Animal dietary status: Animals are not fasted before administration and allowed to drink water freely.
Compound preparation method: for intragastric administration (IG)(G1 group), preparing with 0.5% CMC-Na, and for intravenous injection(IV) (G2 group), preparing 5% DMSO+30% PEG400+65% water. […]
Sampling time points of G1 group: 8 points in total, namely 10 min, 30 min, 1 h, 2 h, 4 h, 6 h, 8 h and 24 h after administration, among them, animals G1M01-G1M03 are sampled at 3 time points, namely 10 min, 1 h and 6 h; animals G1M04-G1M06 are sampled at 3 time points, namely 30 min, 2 h and 8 h; animals G1M07-G1M09 are sampled at 2 time points, namely 4 h and 24 h.
Sampling time points of G2 group: 9 points in total, namely 5 min, 10 min, 30 min, 1 h, 2 h, 4 h, 6 h, 8 h, 24 h after administration. It is recommended that animals G2M01-G2M03 are sampled at 3 time points, namely 5 min, 1 h, and 6 h; animals G2M04-G2M06 are sampled at 3 time points, namely 10 min, 2 h, and 8 h; animals G2M07-G2M09 are sampled at 3 time points, namely 30 min, 4 h, and 24 h.
Sample collection: On the day of the experiment, collecting approximately 0.1 mL of whole blood samples at each preset time point and placing in EDTA-K2 anticoagulant tubes.
Sample processing: Within 30 minutes after whole blood sample collection, centrifuging at 4° C., 12,000 rpm for 5 minutes to separate plasma, collecting the upper plasma sample into a sample tube, and freezing the plasma sample in a −10˜−30° C. refrigerator within 30 minutes and transferring to a −60˜−90° C. refrigerator within 24 hours.
Sample testing and data processing: LC/MS/MS testing, WinNonlin for fitting and pharmacokinetic parameter calculation.

[10] = target: recombinant TEAD2 protein central pocket (Homo sapiens (Human), UniProt Q15562); test: Competitive thiol binding assay (CPM assay), TEAD2; settings: 150 nM recombinant TEAD protein, 150 nM CPM
recombinant TEAD2 protein central pocket, sequence (Q15562 whole entry): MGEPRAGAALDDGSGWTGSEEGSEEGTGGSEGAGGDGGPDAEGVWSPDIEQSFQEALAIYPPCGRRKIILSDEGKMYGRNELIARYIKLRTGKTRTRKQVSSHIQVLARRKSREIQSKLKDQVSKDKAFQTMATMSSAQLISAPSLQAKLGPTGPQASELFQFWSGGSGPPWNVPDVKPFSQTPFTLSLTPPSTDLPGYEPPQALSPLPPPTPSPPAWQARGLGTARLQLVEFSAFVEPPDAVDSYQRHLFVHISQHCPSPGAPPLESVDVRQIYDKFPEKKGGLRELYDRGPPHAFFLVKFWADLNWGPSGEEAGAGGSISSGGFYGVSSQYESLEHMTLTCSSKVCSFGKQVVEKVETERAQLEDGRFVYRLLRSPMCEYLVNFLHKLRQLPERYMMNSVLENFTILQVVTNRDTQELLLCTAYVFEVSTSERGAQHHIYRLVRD
Protocol: as §3

[11] = target: recombinant TEAD3 protein central pocket (Homo sapiens (Human), UniProt Q99594); test: Competitive thiol binding assay (CPM assay), TEAD3; settings: 150 nM recombinant TEAD protein, 150 nM CPM
recombinant TEAD3 protein central pocket, sequence (Q99594 whole entry): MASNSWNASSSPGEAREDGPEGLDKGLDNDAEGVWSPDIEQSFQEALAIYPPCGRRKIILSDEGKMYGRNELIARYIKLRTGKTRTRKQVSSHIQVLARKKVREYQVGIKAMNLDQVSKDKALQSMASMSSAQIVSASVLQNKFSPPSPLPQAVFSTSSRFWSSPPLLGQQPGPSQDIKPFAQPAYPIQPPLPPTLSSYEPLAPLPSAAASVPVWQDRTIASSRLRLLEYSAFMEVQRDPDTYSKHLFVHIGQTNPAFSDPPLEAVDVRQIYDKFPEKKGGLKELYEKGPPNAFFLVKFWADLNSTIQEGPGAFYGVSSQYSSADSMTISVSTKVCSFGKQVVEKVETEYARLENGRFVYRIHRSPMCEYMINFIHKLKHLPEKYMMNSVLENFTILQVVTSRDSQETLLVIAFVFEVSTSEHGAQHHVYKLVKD
Protocol: as §3

[12] = Permeability test on Caco2 cells; format: in vitro ADME; settings: human, Caco-2, AP→BL
Protocol: (§7) After resuscitation, the Caco-2 cells are transferred to a conventional culture dish and cultured in a high-glucose DMEM medium (containing 10% FBS) at 37° C. and 5% CO2 in an incubator. When the cells cover 80% to 95% of the bottom of the dish, they are digested with trypsin containing 0.25% EDTA to disperse them into a single cell suspension, and the cell concentration is determined using a cell counter, after that, the concentration of the cell suspension is adjusted to 2 to 2.5×10^5/mL with fresh culture medium and inoculated into a Transwell polycarbonate membrane 12-well plate, the fresh culture medium is replaced every two days in the first two weeks and once a day in the last week, the culture is continued for 19 to 21 days to obtain a fully differentiated single cell layer.

Caco-2 cells = test: Permeability test on Caco2 cells; format: in vitro ADME; settings: for Penetration Type: Caco2 cell model
Protocol: as §7

[13] = CD-1, mouse, plasma, VT103 in mice, IV
[14] = single replicate, read-out: Papp

| Compound | Δ T m (TEAD2) [2] | Δ T m (TEAD3) [3] | Δ T m (TEAD4) [4] | binding ability to each subtype of TEAD family proteins (TEAD family proteins) | IC50 [5] | IC50 [6] | mouse half-life [7] | human half-life [8] | IC50 [10] | Δ T m (TEAD1) [1] | further results |
| --- | --- | --- | --- | --- | --- | --- | --- | --- | --- | --- | --- |
| CP(C)(=O)c1ccc(Nc2ccc(C(F)(F)F)cc2)c(-c2nc(OC3COC3)cs2)c1 [Compound 7] | ++ | ++ | ++++ | good binding abilities | 170 nM | 250 nM |  |  |  | ++++ |  |
| O=C1OC2(c3ccc(O)cc3Oc3cc(O)ccc32)c2ccccc21 [fluorescein] |  |  |  |  |  |  |  |  |  |  | Papp at 120 min ([12]; n = 2, read-out: Papp average value): 0.349 ×10⁻⁶ cm/s; Papp at 120 min [12, 14]: 0.364 ×10⁻⁶ cm/s; Papp (Caco-2 cells; AP→BL, single replicate): 0.334 10^−6 cm/s; Receiving chamber concentration Area ratio/OD (Caco-2 cells; AP→BL, single replicate): 4.40E+07 and 4.05E+07; Penetration Type (Caco-2 cells): Zero |
| O=P1(c2ccc(Nc3ccc(C(F)(F)F)cc3)c(-c3ncccn3)c2)CC(CO)C1 (stereo not shown) [Compound 21] | ++++ | +++ | ++++ | good binding abilities | 200 nM | 110 nM |  |  | 310 nM | ++++ |  |
| CP(C)(=O)c1ccc(Nc2ccc(C(F)(F)F)cc2)c(-c2nccc(N3CC[C@H](O)C3)n2)c1 [Compound 9] | ++ | + | +++ |  |  |  | 1.43 h | 0.488 h |  | +++ |  |
| Cn1cnc(-c2cc(P3(=O)CCNCC3)ccc2Nc2ccc(C(F)(F)F)cc2)c1 [Compound 1] | +++ | ++ | +++ |  |  |  | 1.56 h | 5.98 h |  | +++ | metabolic stability [7]: good metabolic stabilities; metabolic stability [8]: good metabolic stabilities |
| COCCc1ccc(OCC(O)CNC(C)C)cc1 (stereo not shown) [Metoprolol] |  |  |  |  |  |  |  |  |  |  | Papp at 120 min [12, 14]: 17.8 ×10⁻⁶ cm/s; Papp (Caco-2 cells; AP→BL, single replicate): 18.4 10^−6 cm/s; Penetration Type (Caco-2 cells): High |

Now from value to compound, other results behind:

| Δ T m (TEAD2) [2] | Δ T m (TEAD3) [3] | Δ T m (TEAD4) [4] | binding ability to each subtype of TEAD family proteins (TEAD family proteins) | IC50 [5] | IC50 [6] | mouse half-life [7] | human half-life [8] | IC50 [10] | Compound | Δ T m (TEAD1) [1] | further results |
| --- | --- | --- | --- | --- | --- | --- | --- | --- | --- | --- | --- |
|  |  |  | good binding abilities |  |  | > 3.1 h | > 3.1 h |  | Cn1cnc(-c2cc(P(C)(C)=O)ccc2Nc2ccc(C(F)(F)F)cc2)c1 [Compound 64] | ++++ | metabolic stability [7]: good metabolic stabilities; metabolic stability [8]: good metabolic stabilities; F % ([9]; CD-1 mice, IG 10 mg/kg vs IV 1 mg/kg): 87.1%; AUC0-t ([9]; CD-1 mice, single IG 10 mg/kg): 57458 ng·h/mL; AUC0-∞ ([9]; CD-1 mice, single IG 10 mg/kg): 69572 ng·h/mL; Cmax ([9]; CD-1 mice, single IG 10 mg/kg): 4063 ng/mL; MRT0-t ([9]; CD-1 mice, single IG 10 mg/kg): 8.16 h; MRT0-∞ ([9]; CD-1 mice, single IG 10 mg/kg): 13.3 h; Tmax ([9]; CD-1 mice, single IG 10 mg/kg): 2.67 h; t1/2 ([9]; CD-1 mice, single IG 10 mg/kg): 9.43 h; AUC0-t ([9]; CD-1 mice, single IV 1 mg/kg): 6596 ng·h/mL; AUC0-∞ ([9]; CD-1 mice, single IV 1 mg/kg): 7208 ng·h/mL; CL ([9]; CD-1 mice, single IV 1 mg/kg): 2.33 mL/min/kg; MRT0-t ([9]; CD-1 mice, single IV 1 mg/kg): 5.85 h; MRT0-∞ ([9]; CD-1 mice, single IV 1 mg/kg): 8.26 h; Vss ([9]; CD-1 mice, single IV 1 mg/kg): 1.15 L/kg; t1/2 ([9]; CD-1 mice, single IV 1 mg/kg): 6.98 h; pharmacokinetic properties in mice ([9]; mice): good pharmacokinetic properties |
|  |  |  |  | 1200 nM | 2500 nM |  |  | 880 nM | CNS(=O)(=O)c1ccc(Nc2ccc(C(F)(F)F)cc2)c(-c2cn(C)cn2)c1 [VT103, reference compound] |  | concentration at 24 h ([9]; CD-1, mouse, plasma, oral, VT103 in mice, IG 7 mg/kg, converted from ng/ml, read-out: blood concentration after 24 hours): 828 nM; bioavailability ([9]; CD-1, mouse, plasma, po, 7 mg/kg, VT103 in mice): 75%; concentration at 24 h ([9]; CD-1, mouse, plasma, VT103 in mice, 7 mg/kg oral/IG, read-out: plasma drug concentration after 24 hours C24h): 340 ng/mL; clearance [9, 13]: 4.7 mL/min/kg; half-life [9, 13]: 13.2 h; Vd ([9]; CD-1, mouse, plasma, VT103 in mice, IV, read-out: VSS): 4.5 L/kg; Cmax ([9]; CD-1, mouse, plasma, VT103 in mice, per oral (PO) 7 mg/kg, read-out: Cmax): 896 ng/mL; IC50 [11]: 2700 nM |
| ++++ | +++ | ++++ | good binding abilities | 340 nM | 220 nM |  |  | 530 nM | CCP(=O)(CC)c1ccc(Nc2ccc(C(F)(F)F)cc2)c(-c2cn(C)cn2)c1 [Compound 76] | ++++ | IC50 [11]: 710 nM |
